Results taken from patent publication US20030087834A1, “Increased fertility and improved fetal development drug” (priority 1999, published 2003).

Experiments:
[1] = tested on: Female Crl:CD (SD) BR Rats; test: Developmental toxicity study in rats: reproductive performance and fetal development; type: in vivo, rat; conditions: for Females pregnant (%) / Fertility index / Litters with resorptions (%) / Number of dead fetuses / Number of females bearing viable fetuses / Number of females pregnant / Number of litters with resorptions / Total number of viable fetuses / Body weight (g) of viable fetuses / Body weight (g) of viable fetuses: Female fetuses / Body weight (g) of viable fetuses: Male fetuses / Number of corpora lutea / Number of female fetuses / Number of implantation sites / Number of males fetuses / Number of resorptions / Postimplantation loss = (resorptions/implantations) / Preimplantation loss = (corpora lutea-implants)/(corpora lutea): Days 6 to 15 of gestation; for Total number of viable fetuses: Day 20; for Body weight (g) of viable fetuses / Body weight (g) of viable fetuses: Female fetuses / Body weight (g) of viable fetuses: Male fetuses / Number of corpora lutea / Number of female fetuses / Number of implantation sites / Number of males fetuses / Number of resorptions / Postimplantation loss = (resorptions/implantations) / Preimplantation loss = (corpora lutea-implants)/(corpora lutea): mean ±SD
Excerpt: (§1) Safety tests performed on tagatose in its development as a low-calorie sweetener included developmental toxicity studies in rats. Rats are accepted by the US FDA as good models for humans in studying safety and efficacy of food additives and drugs. Newly impregnated rats were placed on various doses of tagatose in their daily diet. Female rats were housed with males nightly in a one-to-one ratio, and each morning inspections for vaginal plugs were made, and in their absence, vaginal smears were taken and tested for sperm. Those females which had been mated were selected for monitoring of fetal development and assigned to tagatose dose groups in a manner so as to provide an equal distribution of mated females among groups and also to equalize the Day 0 gestation mean body weights among the groups. There were 24 mated females in each group. On Days 6-15 of gestation three of the groups received respective total doses of 4,000, 12,000 and 20,000 mg/kg body wt/day administered via gastric intubation in two equally divided doses separated by a four-hour interval. Each dose was administered in 30 ml/kg body weight of distilled, deionized water. […] For a period of 20 days following mating, the rats were observed and measurements taken daily. Upon the 20th day, the rats were killed and a wide variety of physical, toxicological, and fetal developmental parameters was determined for treatment effects. […] However, I noted unpredictable, novel and beneficial effects with respect to fertility and fetal development.

[2] = tested on: human; test: Examples 1-4: human taking tagatose before and during pregnancy; type: in vivo
Excerpt: A 70 kg human with a history of difficulty in conceiving begins taking tagatose twice daily at five g per dose, beginning one month before an attempt to conceive. […] A 70 kg human with a history of spontaneous abortions and stillbirths takes tagatose twice daily at five g per dose, beginning one month before an attempt to conceive. […] A 70 kg human takes precautions against giving birth to a below average weight infant by taking tagatose twice daily at five g per dose, beginning one month before an attempt to conceive. […] A 70 kg human inclined toward obesity desires a child, but is concerned that pregnancy may increase their food intake causing weight problems as experienced in their past pregnancies. They take tagatose twice daily at five g per dose, beginning one month before an attempt to conceive. […] They deliver a healthy, normal child.

[3] = tested on: Female Crl:CD(SD)BR Rats; test: Food consumption in pregnant rats fed D-tagatose; type: in vivo, rat; conditions: for Food intake (g/animal) / Food intake (g/kg body wt/day): mean ±SD
Excerpt: as §1
One of the common problems associated with pregnancy is overeating which can result in excess weight gain with its concomitant health risks to the mother and fetus. […] This represents a clear health advantage for both dam and fetus receiving tagatose.

[4] = 4,000 mg/kg/day, Days 0-6 of pregnancy (pretreatment)
[5] = 4,000 mg/kg/day, Days 6-9 of pregnancy
[6] = 4,000 mg/kg/day, Days 9-12 of pregnancy
[7] = 4,000 mg/kg/day, Days 12-16 of pregnancy
[8] = 4,000 mg/kg/day, Days 16-20 of pregnancy (posttreatment)
[9] = 12,000 mg/kg/day, Days 0-6 of pregnancy (pretreatment)
[10] = 12,000 mg/kg/day, Days 6-9 of pregnancy
[11] = 12,000 mg/kg/day, Days 9-12 of pregnancy
[12] = 12,000 mg/kg/day, Days 12-16 of pregnancy
[13] = 12,000 mg/kg/day, Days 16-20 of pregnancy (posttreatment)
[14] = 20,000 mg/kg/day, Days 0-6 of pregnancy (pretreatment)
[15] = 20,000 mg/kg/day, Days 6-9 of pregnancy
[16] = 20,000 mg/kg/day, Days 9-12 of pregnancy
[17] = 20,000 mg/kg/day, Days 12-16 of pregnancy
[18] = 20,000 mg/kg/day, Days 16-20 of pregnancy (posttreatment)

O=C(CO)[C@@H](O)[C@@H](O)[C@H](O)CO [D-tagatose]
Females pregnant (%) ([1]; 4,000 mg/kg/day): 100%
Fertility index ([1]; 4,000 mg/kg/day): 100
Litters with resorptions (%) ([1]; 4,000 mg/kg/day): 78.3%
Number of dead fetuses ([1]; 4,000 mg/kg/day): 0
Number of females bearing viable fetuses ([1]; 4,000 mg/kg/day): 23
Number of females pregnant ([1]; 4,000 mg/kg/day): 23
Number of litters with resorptions ([1]; 4,000 mg/kg/day): 18
Total number of viable fetuses ([1]; 4,000 mg/kg/day): 354
Body weight (g) of viable fetuses ([1]; 4,000 mg/kg/day): 3.56 ± 0.21 g
Body weight (g) of viable fetuses: Female fetuses ([1]; 4,000 mg/kg/day): 3.49 ± 0.20 g
Body weight (g) of viable fetuses: Male fetuses ([1]; 4,000 mg/kg/day): 3.64 ± 0.22 g
Number of corpora lutea ([1]; 4,000 mg/kg/day): 17.7 ± 2.8
Number of female fetuses ([1]; 4,000 mg/kg/day): 8.0 ± 2.2
Number of implantation sites ([1]; 4,000 mg/kg/day): 16.5 ± 2.3
Number of males fetuses ([1]; 4,000 mg/kg/day): 7.4 ± 2.3
Number of resorptions ([1]; 4,000 mg/kg/day): 1.1 ± 0.9
Postimplantation loss = (resorptions/implantations) ([1]; 4,000 mg/kg/day): 0.068 ± 0.051
Preimplantation loss = (corpora lutea-implants)/(corpora lutea) ([1]; 4,000 mg/kg/day): 0.053 ± 0.113
Females pregnant (%) ([1]; 12,000 mg/kg/day): 91.3%
Fertility index ([1]; 12,000 mg/kg/day): 91.3
Litters with resorptions (%) ([1]; 12,000 mg/kg/day): 28.6%
Number of dead fetuses ([1]; 12,000 mg/kg/day): 0
Number of females bearing viable fetuses ([1]; 12,000 mg/kg/day): 21
Number of females pregnant ([1]; 12,000 mg/kg/day): 21
Number of litters with resorptions ([1]; 12,000 mg/kg/day): 6
Total number of viable fetuses ([1]; 12,000 mg/kg/day): 322
Body weight (g) of viable fetuses ([1]; 12,000 mg/kg/day): 3.75 ± 0.32 g
Body weight (g) of viable fetuses: Female fetuses ([1]; 12,000 mg/kg/day): 3.65 ± 0.35 g
Body weight (g) of viable fetuses: Male fetuses ([1]; 12,000 mg/kg/day): 3.84 ± 0.33 g
Number of corpora lutea ([1]; 12,000 mg/kg/day): 17.7 ± 2.9
Number of female fetuses ([1]; 12,000 mg/kg/day): 7.5 ± 2.2
Number of implantation sites ([1]; 12,000 mg/kg/day): 15.9 ± 2.9
Number of males fetuses ([1]; 12,000 mg/kg/day): 7.8 ± 2.3
Number of resorptions ([1]; 12,000 mg/kg/day): 0.5 ± 0.9
Postimplantation loss = (resorptions/implantations) ([1]; 12,000 mg/kg/day): 0.043 ± 0.087
Preimplantation loss = (corpora lutea-implants)/(corpora lutea) ([1]; 12,000 mg/kg/day): 0.094 ± 0.151
Females pregnant (%) ([1]; 20,000 mg/kg/day): 100%
Fertility index ([1]; 20,000 mg/kg/day): 100
Litters with resorptions (%) ([1]; 20,000 mg/kg/day): 54.2%
Number of dead fetuses ([1]; 20,000 mg/kg/day): 0
Number of females bearing viable fetuses ([1]; 20,000 mg/kg/day): 24
Number of females pregnant ([1]; 20,000 mg/kg/day): 24
Number of litters with resorptions ([1]; 20,000 mg/kg/day): 13
Total number of viable fetuses ([1]; 20,000 mg/kg/day): 350
Body weight (g) of viable fetuses ([1]; 20,000 mg/kg/day): 3.57 ± 0.24 g
Body weight (g) of viable fetuses: Female fetuses ([1]; 20,000 mg/kg/day): 3.49 ± 0.19 g
Body weight (g) of viable fetuses: Male fetuses ([1]; 20,000 mg/kg/day): 3.68 ± 0.27 g
Number of corpora lutea ([1]; 20,000 mg/kg/day): 17.4 ± 2.8
Number of female fetuses ([1]; 20,000 mg/kg/day): 7.1 ± 2.3
Number of implantation sites ([1]; 20,000 mg/kg/day): 15.3 ± 2.9
Number of males fetuses ([1]; 20,000 mg/kg/day): 7.5 ± 2.3
Number of resorptions ([1]; 20,000 mg/kg/day): 0.8 ± 0.8
Postimplantation loss = (resorptions/implantations) ([1]; 20,000 mg/kg/day): 0.047 ± 0.049
Preimplantation loss = (corpora lutea-implants)/(corpora lutea) ([1]; 20,000 mg/kg/day): 0.107 ± 0.162
Adverse effects in the dams or fetuses ([1]; 4,000, 12,000 and 20,000 mg/kg body wt/day via gastric intubation, Days 6-15 of gestation, killed Day 20): No adverse effects in the dams or fetuses were found
Fetal weight versus control rats ([1]; each tagatose group, total, males and females): weighed more than the fetuses of the control rats
Fetal weight relative to normal weight range for age ([1]; fetuses from rats on tagatose, normal range 3.35-3.86 g males, 3.19-3.63 g females): within the normal weight range for their ages
Birth weight ([2]; 70 kg human female, family history of low birth weight babies, five g twice daily): delivers a baby within the normal birth weight range
Food intake during pregnancy ([2]; 70 kg human inclined toward obesity, five g twice daily): their average daily diet does not increase
Conception (increased fertility) ([2]; 70 kg human, history of difficulty conceiving, five g twice daily from one month before attempt): their attempt is successful and they are pregnant
Live birth ([2]; 70 kg human, history of spontaneous abortions and stillbirths, five g twice daily): delivering a live birth
Food intake (g/animal) [3, 4]: 144 ± 11 g/animal
Food intake (g/kg body wt/day) [3, 4]: 103 ± 7 g/kg body wt/day
Food intake (g/animal) [3, 5]: 70 ± 5 g/animal
Food intake (g/kg body wt/day) [3, 5]: 84 ± 4 g/kg body wt/day
Food intake (g/animal) [3, 6]: 78 ± 7 g/animal
Food intake (g/kg body wt/day) [3, 6]: 91 ± 5 g/kg body wt/day
Food intake (g/animal) [3, 7]: 112 ± 9 g/animal
Food intake (g/kg body wt/day) [3, 7]: 90 ± 5 g/kg body wt/day
Food intake (g/animal) [3, 8]: 129 ± 10 g/animal
Food intake (g/kg body wt/day) [3, 8]: 94 ± 3 g/kg body wt/day
Food intake (g/animal) [3, 9]: 148 ± 8 g/animal
Food intake (g/kg body wt/day) [3, 9]: 104 ± 8 g/kg body wt/day
Food intake (g/animal) [3, 10]: 58 ± 6 g/animal
Food intake (g/kg body wt/day) [3, 10]: 69 ± 7 g/kg body wt/day
Food intake (g/animal) [3, 11]: 73 ± 6 g/animal
Food intake (g/kg body wt/day) [3, 11]: 84 ± 5 g/kg body wt/day
Food intake (g/animal) [3, 12]: 105 ± 9 g/animal
Food intake (g/kg body wt/day) [3, 12]: 83 ± 5 g/kg body wt/day
Food intake (g/animal) [3, 13]: 137 ± 9 g/animal
Food intake (g/kg body wt/day) [3, 13]: 99 ± 5 g/kg body wt/day
Food intake (g/animal) [3, 14]: 149 ± 14 g/animal
Food intake (g/kg body wt/day) [3, 14]: 107 ± 9 g/kg body wt/day
Food intake (g/animal) [3, 15]: 43 ± 12 g/animal
Food intake (g/kg body wt/day) [3, 15]: 51 ± 14 g/kg body wt/day
Food intake (g/animal) [3, 16]: 67 ± 7 g/animal
Food intake (g/kg body wt/day) [3, 16]: 80 ± 7 g/kg body wt/day
Food intake (g/animal) [3, 17]: 94 ± 10 g/animal
Food intake (g/kg body wt/day) [3, 17]: 77 ± 6 g/kg body wt/day
Food intake (g/animal) [3, 18]: 138 ± 11 g/animal
Food intake (g/kg body wt/day) [3, 18]: 102 ± 6 g/kg body wt/day
Weight loss in the dams ([3]; except Day 6 to Day 9, attributed to laxation in the high dose groups): no consistent weight loss in the dams
Total daily food intake versus control group ([3]; period on tagatose, Day 6 through Day 15): less than the daily food intakes of rats in the control group
